Reference: patent US20120122115A1, “Bacterial quorum sensing biosensor” (priority 2006, published 2012)

Tests used:
[1] = test system: V. harveyi strain MM30 (luxS-); test: Bacterial reporter bioassay (luminescence) and EC50 determination; type: cell-based; settings: MM30 in borate-free AB medium
Protocol: V. harveyi strain MM30 (luxS^−) is grown overnight at 28° C. for 16 hours and diluted 1:5000 in fresh borate-free AB medium. Bacteria (90 μL) are added to a 96-well microtiter plate containing 10 μL dilutions of the sample and incubated for 4 hours at 30° C. Luminescence is read using a Wallac Victor2 multimode plate reader (Perkin-Elmer). The BAI-2 concentration required for 50% maximum luminescence response (EC50) is determined using a relationship based on the luminescence response L for different ligand concentrations (s)
where Lmin and Lmax represent the minimum and maximum luminescence responses, respectively, at the time of measurement.

[2] = molecular target: CLPY biosensor (CFP-LuxP-YFP fusion) (Vibrio harveyi, UniProt P54300, D303A); test: CLPY FRET binding affinity determination; parameters: species or system V. harveyi
Protocol: The YFP or CFP fluorescence response of wild-type and mutant forms of CLPY (1.0 mL, 0.015 mg/mL) to different ligands is measured 5 minutes after addition of the ligand to the protein at room temperature. No time-dependent changes in the CLPY FRET ratio are observed after incubation for 5 minutes. All BAI-2 dilutions are carried out in a borate-free buffer to maintain the DPD:borate ratio (1:4). The CLPY FRET ratio response to different BAI-2 concentrations is used to generate the ligand binding saturation curve. For the determination of the binding affinity (Kd) and the binding stoichiometry n, a nonlinear regression analysis equation (Equation 4) is used as shown below: […]
where R is the observed CLPY FRET ratio response for different ligand concentrations (s) and Rmax and Rmin represent the ligand-free and ligand-saturated FRET ratios, respectively.

SMILES | bacterial reporter strain luminescence response (qualitative) [1] | CLPY FRET response ([2]; borate ≦400 μM) | CLPY FRET response ([2]; DPD ≦100 μM)
OB(O)O [borate] | did not respond | did not exhibit any detectable FRET response | –
CC(=O)C(=O)C(O)CO (stereo not shown) [DPD, 4,5-dihydroxy-2,3-pentanedione] | did not respond | – | did not exhibit any detectable FRET response
